# Reference: paper PMC5641330, “Prediction of a Therapeutic Dose for Buagafuran, a Potent Anxiolytic Agent by Physiologically Based Pharmacokinetic/Pharmacodynamic Modeling Starting from Pharmacokinetics in Rats and Human” (Frontiers in Pharmacology, 2017)
# Columns and labels:
# [1] = Caco-2 transport study; format: in vitro ADME; set-up: Caco-2 Papp: unit not given here; conditions: human, Caco-2 monolayer
# Experimental: (§1) Caco-2 Cells from passage 38 were applied to the transport experiments. Cells were seeded on polycarbonate filters (12 mm diameter, pore size 0.4 μm). The cell monolayers were used 21 days post seeding. Buagafuran was dissolved in DMSO. It was further diluted to 50 μM with HBSS. The final buagafuran concentration was 50 μM. For absorptive (AP→BL) permeability test, drug solution (0.4 mL) was added to the apical chamber. For secretive (BL→AP) permeability experiments, drug solution (0.6 mL) was added to the basolateral chamber, then 50 μL samples (n = 3) were withdrawn from receiver chamber at specified times and 50 μL fresh buffer was added in the receiver chamber. The experiments were carried out in triplicate at 4 time points.
# (§2) Transport of buagafuran was tested using a linear model. The regression line was validated by inspection with naked eye and the value of correlation coefficient was R > 0.9. The apparent permeability coefficient (Papp) was calculated by the formula Papp = (ΔQ/Δt)/ACo, where ΔQ/Δt is the transport rate (nmol/s), which remained approximately constant in time, A is the well membrane area (0.6 cm^2), and Co is the initial concentration of buagafuran (μM). The efflux rate (ER) was the ratio of the Papp from the basolateral to apical cells versus the Papp from the apical to basolateral cells. Transport of the tested drug is linear over the incubation times of 30–120 min.
# [2] = system: Caco-2 cells; experiment: Caco-2 transport study; format: in vitro ADME; set-up: Caco-2 Papp: unit not given here; conditions: PBPK input parameter; 50 μM
# Experimental: as §1, §2
# [3] = Plasma protein binding by equilibrium dialysis, human plasma; format: in vitro ADME; conditions: 0.5–2 μg/mL
# Experimental: The plasma protein binding of buagafuran (0.5–2 μg/mL) was investigated by equilibrium dialysis. Aliquots (0.5 mL) of plasma were dialyzed against 10 mL phosphate buffered saline containing a ^3H-buagafuran tracer over a membrane with an 8,000- to 12,000-dalton molecular weight cutoff. Dialysis experiment was performed for 60 h at 4 °C. After the dialysis period, 100 μL of the PBS fraction (containing unbound buagafuran) and 100 μL of the plasma fraction (containing both bound and unbound drug) was taken for liquid scintillation counting. The ratio of buagafuran concentration in buffer to that in plasma was applied to calculate the unbound fraction (Fu).
# [4] = Clearance prediction from incubation with rat liver microsomes; format: in vitro ADME
# Experimental: Drug disappearance t1/2 value measurements in rat and human microsomes were used to determine the in vitro apparent intrinsic clearance value (CLintapp) of buagafuran acquired using Then CLintapp was converted to in vivo intrinsic clearance (CLint).
# Rat or human liver microsomal incubation (0.5 mg/mL) was carried out at 37°C in a mixture of 0.5 mL in 0.05 M Tris–HCl buffer (pH 7.4). Buagafuran (2 μM) was added to the incubation system. The addition of NADPH (1 mM) initiated the reaction, then the reaction was incubated for 0, 10, 20, 30, 45, and 60 min. The equal volume of acetonitrile containing the IS (10 ng/mL) was added to stop the reaction. The mixtures were centrifuged at 16000 g for 5 min and the supernatants were determined using LC-MS/MS method.
# The natural log (In) of buagafuran concentration versus time was plotted and the slope of the best fit line of was determined by the data (k). This was converted into in vitro t1/2 where t1/2 = In 2/k. CLintapp was calculated by the following equation: […]
# Where M is the microsomal protein concentration in the incubation. CLint by liver was calculated from equation 2:
# (2) CLint=CLint(app)×mgmicrosome/gliver×liverweight(g)/bodyweight(kg)
# Where a value of 45 mg of protein per gram of liver tissue was used for both rat and human, and a liver weight of 40 and 21 g per kg were applied to rat and human, respectively ([Hosea et al., 2009]). […]
# [5] = system: CYP3A and CYP2E; set-up: method as in Zhang, 1997; Li et al., 2001; Li, 2010; conditions: ref Zhang, 1997, Li et al., 2001, 2010; cited from earlier work
# [6] = set-up: method as in Chen X. et al., 2013; conditions: clinical data; ref Chen X. et al., 2013; cited from earlier work
smiles,measurement,setting,value
CCCCC1=CCC[C@@]2(C)CC[C@@H]3C[C@]12OC3(C)C [buagafuran],Papp A→B at 50 μM,[1]; read-out: apparent permeability coefficient (AP to BL),195 ×10⁻⁶ cm/s
same,Papp B→A at 50 μM,[1]; read-out: apparent permeability coefficient (BL to AP),438 ×10⁻⁶ cm/s
same,Caco-2 Papp,[2],19.5 × 10^-5
same,concentration dependence of plasma protein binding,[3]; human plasma,no evident concentration-dependent binding
same,fraction unbound at 60 h,"[3]; human, plasma, equilibrium dialysis, read-out: Fup human (unbound fraction in human plasma)",0.04
same,CLhep predicted,"[4]; from rat liver microsomes, well-stirred model",28.0 mL/min/kg
same,microsomal CLint at 2 μM,"[4]; pH 7.4, rat liver microsomes 0.5 mg/mL, 2 μM, read-out: in vitro CLintapp",33 µL/min/mg
same,major enzymes involved in its metabolism in vitro,[5],CYP3A and CYP2E
same,urine excretion of the dose administered,[6],less than 1%
